Patent US20230218555A1, “CREATINE, ITS DERIVATIVES, COMPOSITIONS AND METHODS OF USE THEREOF” (priority 2021, published 2023)

Assays:
Type in all cases: in vivo, human
[1] = tested on: erythematous pharyngitis; experiment: Example 31: sore throat, spray mist
Protocol: A subject, upon arising from bed in the morning, was acutely aware of a severe sore throat. […] They were provided, in a 2 oz spray container, a 3% aqueous solution of C15 that they sprayed into their moth toward the inflamed pharynx. […] Repeated spraying during the day were followed by longer pain free intervals. They reported that at 7 PM the last pain free interval had been 1 hour. Next morning the pharyngitis had improved, and the subject used spray mist less frequently.

[2] = tested on: painful right shoulder; experiment: Example 24: osteoarthritis, shoulder
From the text: The same subject above has had painful right shoulder for several months.

[3] = tested on: rheumatoid arthritis; rheumatoid nodule; experiment: Example 13: rheumatoid arthritis fingers, nodule injection and glove application; conditions: left hand only
Protocol: A subject noted changes in their fingers that appeared to be compatible with the diagnosis of early rheumatoid arthritis in autumn of the year. At about one month later there appeared over the terminal interphalangeal joint of the left third finger a raised inflammatory nodule compatible with the diagnosis of a rheumatoid nodule. The nodule was injected with 0.15 ml of a 2% aqueous solution/suspension of creatine monohydrate once weekly for four injections. […] Thereafter, for a period of one month, the subject wore a nitrile glove containing a few drops N-acetyl ethyl creatine 3% dissolved in water: propylene glycol 8:2 for about an hour twice daily on the left hand only.

[4] = tested on: Rheumatoid Arthritis (RA); experiment: Example 26: rheumatoid arthritis, intralesional injection and topical; conditions: 3-9% in WP 82 in nitrile gloves, 1 hour twice daily, after the creatine injections
Protocol: A subject, described in an earlier Example, after approximately 4 months of worsening symptoms, and finger joint enlargements on both hands, realized that they were rapidly developing RA, especially when a rheumatoid nodule enlarged over the terminal joint of the left […] finger to a size of approximately 1 cm in diameter, and about 3 mm thick. The nodule was initially injected with 0.15 ml of a 2% aqueous solution/suspension of creatine monohydrate once weekly for 4 injections. […] Thereafter the subject wore a nitrile glove containing a few drops of C15 3-9% dissolved in WP 82 for an hour twice daily on the left hand only. After another 2 months C15 9% in WP 82 was topically applied by means of their wearing nitrile gloves containing the C15 solution for 1 hour twice daily. […] It is intended for the subject to continue topical treatment in one form or another for an indefinite time forward.

[5] = tested on: osteoarthritis of numerous joints; experiment: Example 19: abdominal subcutaneous injections
Protocol: A physician subject with continually worsening, for 15-16 years, painful osteoarthritis of numerous joints (almost entire spine, wrists, right shoulder, knees and most recently the feet) on one day at 11:30 AM self injected subcutaneously the right abdominal area with 3 ml of a sterile aqueous solution that they had prepared containing N-acetyl ethyl creatinate 1%, arginine 0.25%, pH 7. Using 1 ml insulin syringes with short 8 mm needles 1 ml of the solution was injected into each of 3 sites. Ten minutes later their whole body was 95+% pain free and remained so for 3.5 hours when pain was sensed to be returning. Pain in usual severity returned within another 20-30 minutes.
The next day at 9:00 AM the subject injected 5 sites, each with 1 ml of the same solution. Within 10 minutes their whole body again was 95+% pain free. This almost complete pain free state was maintained for 4 hours when very mild pain in the knees was sensed. Pain in knees and in cervical spine returned to usual degree of severity within an ensuing period of about 20 minutes.

[6] = tested on: cervical and thoracic spine; experiment: Example 24: osteoarthritis, spine
Protocol: The same subject above topically applied an adhesive dressing, 5 cm wide and 30 cm long, saturated with a solution of C15 4% in WP 82 to the upper spine.
Over a period of 3 months, subcutaneous injections of 0.6 ml of the above C15 solution were injected subcutaneously into each of 5 intervertebral sites of the cervical and thoracic spine.

[7] = tested on: post trauma pain in the pinned ankle; experiment: Example 34: ankle pain after surgical insertion of metal screws; conditions: prior applications of C15 formulations
Protocol: A subject with above described post trauma pain at the end of each day experienced painful discomfort in the pinned ankle. […] Complete relief lasted nearly 24 hours. At the end of the next day, the ankle was as painful as the days before. Subject applied 6% C20 in same liquid vehicle.

[8] = tested on: burning itch induced by Mucuna pruriens spicules; experiment: Example 38: burning itch induced by Mucuna pruriens; conditions: 10% in lotion
Protocol: Pods with beans were obtained from Afro Caribe Botanica, 16 separate specimens. Small round brushes marketed for interdental cleaning were used to collect spicules from the pods. Application to both volar and extensor surfaces of the forearm were made by intense rubbing of the skin with such brush containing spicules. Burning itch developed within 5-7 minutes. […] Participants in this study included the following; • 1. A person. • 2. A person. • 3. A person. • 4. A person. • 5. A person.

[9] = tested on: migraine headaches and associated symptoms; experiment: Example 29: migraine headache
Protocol: A subject, with a history of migraine headaches and associated symptoms, presented with a recurrent episode of such that had begun during their night of sleep. Symptoms included an intense frontal headache, and feeling of light dizziness, and nausea when they turned their head. They were provided a 9% solution of C15 dissolved in WEP 532 to be applied to the forehead and temporal areas as needed to relieve symptoms. […] Relief lasted for 1-4 hours during the first day of use, and during the second day of use, the subject experienced a much longer period of relief of symptoms.

[10] = tested on: muscular pain of upper right back, dystonia; experiment: Example 23: pain of dystonia, local subcutaneous injections
Protocol: Five sites of the upper back were injected with 0.3 ml C15 in aqueous solution using insulin syringes with 30G short needles. […] At that time the injections were repeated just before […] departed on a trip to Europe.

Question: For `CCOC(=O)CN(C)C(N)=NC(C)=O` [Compound C15, N-acetyl ethyl creatinate], which relief of pain ([1]; 3% aqueous solution sprayed toward pharynx) is on record?
Answer: immediate complete relief of pain

Question: And the “duration of relief, first spraying” value ([1]; 3% aqueous spray)?
Answer: 25 min

Question: And the “last pain free interval at 7 PM” value ([1]; repeated spraying during the day)?
Answer: 1 h

Question: What about the duration of relief ([2]; subcutaneous 1 ml) of the same compound?
Answer: 6 to 7 days

Question: And the “extent of pain relief” value ([2]; subcutaneous 1 ml of 1.5% aqueous solution, three occasions, person)?
Answer: complete relief of pain

Question: What about the “pain on making a fist” value ([3]; 3% in glove) of the same compound?
Answer: the left fist was pain free whereas the right fist was substantially painful

Question: And the “size of tight fist” value ([3]; 3% in glove)?
Answer: the size of the left fist was visibly smaller than that of the right

Question: And the “flexibility of hand and fingers” value ([3]; 3% in glove, right hand restricted)?
Answer: The left hand and fingers were completely flexible

Question: What about the “feel of treated left hand vs untreated right hand” value ([3]; 3% in water: propylene glycol 8:2 in nitrile glove, about an hour twice daily, one month, after another two months) of the same compound?
Answer: feel much better than the right hand

Question: What about the “appearance of hands after 9 months of treatments” value [4] of the same compound?
Answer: both hands appear to be completely normal

Question: What about the “whole body pain free” value ([5]; 3 ml of 1% solution (arginine 0.25%, pH 7), 1 ml into each of 3 abdominal sites, subcutaneous) of the same compound?
Answer: ≥ 95%

Question: What about the “duration of pain free state” value ([5]; 3 ml, 3 sites) of the same compound?
Answer: 3.5 h

Question: What about the “time to pain free state” value ([5]; 3 ml, 3 sites) of the same compound?
Answer: Ten

Question: And the “duration of pain free state” value ([5]; 5 sites, each 1 ml)?
Answer: 4 h

Question: And the “time to pain free state” value ([5]; 5 sites, each 1 ml)?
Answer: ≤ 10 min

Question: And the “whole body pain free” value ([5]; next day, 5 sites, each 1 ml of the same solution)?
Answer: ≥ 95%

Question: And the “time to pain relief” value ([6]; 4% dressing)?
Answer: within an hour

Question: What about the duration of relief ([6]; 4% dressing, until removed) of the same compound?
Answer: about 8 hours

Question: What about the “extent of pain relief” value ([6]; adhesive dressing saturated with 4% in WP 82 on upper spine, person) of the same compound?
Answer: complete relief of pain

Question: And the “extent of pain relief” value ([6]; subcutaneous 0.6 ml into each of 5 intervertebral sites, five occasions)?
Answer: complete relief of pain

Question: What about the duration of relief ([6]; subcutaneous 0.6 ml, 5 sites) of the same compound?
Answer: 1-4 weeks

Question: And the “extent of pain relief” value [7]?
Answer: substantially relieve the pain but not completely

Question: What about the persistence of relief [8] of the same compound?
Answer: permanent

Question: What about the “time to complete relief of itch” value [8] of the same compound?
Answer: 1 to 2 min

Question: What about the “extent of itch relief” value ([8]; forearm, five participants) of the same compound?
Answer: complete relief of itch

Question: And the relief of symptoms ([9]; 9% in WEP 532, to forehead and temporal areas)?
Answer: relieved symptoms within a few minutes

Question: And the duration of relief ([9]; first day of use)?
Answer: 1 to 4 h

Question: And the “symptoms at end of third day” value ([9]; following 3 more applications)?
Answer: symptoms were no longer detectable

Question: What about the follow-up ([9]; next week) of the same compound?
Answer: remained symptoms free over the next week of follow-up

Question: What about the duration of relief ([10]; first injections) of the same compound?
Answer: 2 weeks

Question: And the “extent of pain relief” value ([10]; five sites of upper back injected with 0.3 ml aqueous solution)?
Answer: Complete relief of pain

Question: And the “time to pain relief” value ([10]; five sites, 0.3 ml)?
Answer: within the next hour

Question: What about the “duration of relief after repeated injections” value ([10]; repeated injections) of the same compound?
Answer: lasting beyond two week period
